Blank lines part the entries; values can stand above or below the compound they belong to.
Assays:
[1] = Antioxidant activity assessed as DPPH radical scavenging activity at 40 uM/ml incubated for 20 mins by spectrophotometric method relative to control; assay type: functional
[2] = system: Rattus norvegicus; assay: Analgesic activity in Wistar albino rat assessed as reaction time at 12.5 mg/kg, ip measured after 120 mins for 15 secs by hot plate method (reference value: 4.32 +/- 0.52 sec); assay type: functional
[3] = system: Rattus norvegicus; assay: Antiinflammatory activity in Wistar albino rat assessed as reduction in carrageenan-induced paw volume at 12.5 mg/kg, ip measured after 3 hrs by plethysmometric method (reference value: 1.75 +/- 0.33 ml); assay type: functional
[4] = Selectivity index, ratio of IC50 for inhibition of ovine COX1 to IC50 for inhibition of recombinant human COX2
[5] = system: Rattus norvegicus; assay: Antiinflammatory activity in Wistar albino rat assessed as reduction in carrageenan-induced paw edema at 25 mg/kg, ip measured after 2 hrs by plethysmometric method (reference value: 1.58 +/- 0.21 ml); assay type: functional
[6] = Antioxidant activity assessed as DPPH radical scavenging activity at 20 uM/ml incubated for 20 mins by spectrophotometric method relative to control; assay type: functional
[7] = Antioxidant activity assessed as DPPH radical scavenging activity at 100 uM/ml incubated for 20 mins by spectrophotometric method relative to control; assay type: functional
[8] = system: Rattus norvegicus; assay: Analgesic activity in Wistar albino rat assessed as reaction time at 12.5 mg/kg, ip measured after 30 mins for 15 secs by hot plate method (reference value: 4.21 +/- 0.41 sec); assay type: functional
[9] = Antioxidant activity assessed as DPPH radical scavenging activity incubated for 20 mins by spectrophotometric method; assay type: functional
[10] = Antioxidant activity assessed as DPPH radical scavenging activity at 60 uM/ml incubated for 20 mins by spectrophotometric method relative to control; assay type: functional
[11] = Antioxidant activity assessed as DPPH radical scavenging activity at 80 uM/ml incubated for 20 mins by spectrophotometric method relative to control; assay type: functional
[12] = target: Prostaglandin G/H synthase 1 (Ovis aries) (UniProt P05979); assay: Inhibition of ovine COX1 assessed as reduction in PGF2alpha at 10 uM incubated for 2 mins using arachidonic acid as substrate by ELISA relative to control
[13] = system: Rattus norvegicus; assay: Antiinflammatory activity in Wistar albino rat assessed as reduction in carrageenan-induced paw volume at 12.5 mg/kg, ip measured after 2 hrs by plethysmometric method (reference value: 1.58 +/- 0.21 ml); assay type: functional
[14] = target: Prostaglandin G/H synthase 2 (Homo sapiens) (UniProt P35354); assay: Inhibition of recombinant human COX2 assessed as reduction in PGF2alpha at 10 uM incubated for 2 mins using arachidonic acid as substrate by ELISA relative to control
[15] = system: Rattus norvegicus; assay: Antiinflammatory activity in Wistar albino rat assessed as reduction in carrageenan-induced paw edema at 25 mg/kg, ip measured after 1 hr by plethysmometric method (reference value: 1.43 +/- 0.19 ml); assay type: functional
[16] = system: Rattus norvegicus; assay: Analgesic activity in Wistar albino rat assessed as reaction time at 12.5 mg/kg, ip measured after 60 mins for 15 secs by hot plate method (reference value: 4.67 +/- 0.52 sec); assay type: functional
[17] = system: Rattus norvegicus; assay: Analgesic activity in Wistar albino rat assessed as reaction time at 25 mg/kg, ip measured after 30 mins for 15 secs by hot plate method (reference value: 4.21 +/- 0.41 sec); assay type: functional
[18] = Antioxidant activity assessed as DPPH radical scavenging activity at 10 uM/ml incubated for 20 mins by spectrophotometric method relative to control; assay type: functional
[19] = system: Rattus norvegicus; assay: Analgesic activity in Wistar albino rat assessed as reaction time at 25 mg/kg, ip measured after 180 mins for 15 secs by hot plate method (reference value: 3.87 +/- 0.38 sec); assay type: functional
[20] = system: Rattus norvegicus; assay: Analgesic activity in Wistar albino rat assessed as reaction time at 25 mg/kg, ip measured after 60 mins for 15 secs by hot plate method (reference value: 4.67 +/- 0.52 sec); assay type: functional
[21] = system: Rattus norvegicus; assay: Antiinflammatory activity in Wistar albino rat assessed as reduction in carrageenan-induced paw edema at 25 mg/kg, ip measured after 3 hrs by plethysmometric method (reference value: 1.75 +/- 0.33 ml); assay type: functional
[22] = system: Rattus norvegicus; assay: Antiinflammatory activity in Wistar albino rat assessed as reduction in carrageenan-induced paw volume at 12.5 mg/kg, ip measured after 1 hr by plethysmometric method (reference value: 1.43 +/- 0.19 ml); assay type: functional
[23] = system: Rattus norvegicus; assay: Analgesic activity in Wistar albino rat assessed as reaction time at 12.5 mg/kg, ip measured after 180 mins for 15 secs by hot plate method (reference value: 3.87 +/- 0.38 sec); assay type: functional
[24] = system: Rattus norvegicus; assay: Analgesic activity in Wistar albino rat assessed as reaction time at 25 mg/kg, ip measured after 120 mins for 15 secs by hot plate method (reference value: 4.32 +/- 0.52 sec); assay type: functional

SMILES: CC(C)(C)OC(=O)N(C1=CC(=O)CCC1)c1ccc(Cl)cc1
Activity [1]: 49.6%
Time [2]: 7.99 s
Activity [3]: 1.18 mL
Ratio IC50 [4]: 19.4
Activity [5]: 1.24 mL
Activity [6]: 36.5%
Activity [7]: 89.1%
Time [8]: 5.59 s
IC50 [9]: 42.6 µM
Activity [10]: 63%
Activity [11]: 77.2%
inhibition [12]: 30.5%
Activity [13]: 1.28 mL
inhibition [14]: 73.5%
Activity [15]: 1.3 mL
Time [16]: 6.29 s
Time [17]: 6.53 s
Activity [18]: 23.1%
Time [19]: 7.85 s
Time [20]: 6.87 s
Activity [21]: 1.19 mL
Activity [22]: 1.24 mL
Time [23]: 7.95 s
Time [24]: 9.98 s

inhibition [12]: 43.5%
inhibition [14]: 22.2%
SMILES: O=C1C=C(Nc2ccc(F)cc2)CC1

inhibition [12]: 23.7%
inhibition [14]: 33.5%
SMILES: O=C1C=C(Nc2ccc(Cl)cc2)CC1

inhibition [12]: 65.5%
inhibition [14]: 41.9%
SMILES: CC(=O)c1ccc(NC2=CC(=O)CCC2)cc1

inhibition [12]: 5.14%
inhibition [14]: 34%
SMILES: O=C1C=C(Nc2nc3ccccc3s2)CCC1

inhibition [12]: 30.5%
inhibition [14]: 41.4%
SMILES: O=C1C=C(NCc2ccco2)CC1

inhibition [12]: 11.3%
inhibition [14]: 43.2%
SMILES: O=C1C=C(NN2CCCCC2)CCC1

inhibition [12]: 34%
inhibition [14]: 44.5%
SMILES: CC1(C)CC(=O)C=C(Nc2ccc(F)cc2)C1

SMILES: O=C1C=C(Nc2ccc(Cl)cc2)CCC1
Activity [1]: 33.7%
Time [2]: 7.16 s
Activity [3]: 1.23 mL
Ratio IC50 [4]: 74.1
Activity [5]: 1.24 mL
Activity [6]: 24%
Activity [7]: 78.2%
Time [8]: 5.34 s
IC50 [9]: 71.2 µM
Activity [10]: 46.7%
Activity [11]: 61.3%
inhibition [12]: 12.9%
Activity [13]: 1.22 mL
inhibition [14]: 88.6%
Activity [15]: 1.29 mL
Time [16]: 7.09 s
Time [17]: 5.48 s
Activity [18]: 12.7%
Time [19]: 8.2 s
Time [20]: 7.72 s
Activity [21]: 1.19 mL
Activity [22]: 1.23 mL
Time [23]: 7.24 s
Time [24]: 8.83 s

inhibition [12]: 27.2%
inhibition [14]: 48.4%
SMILES: O=C1C=C(NCc2ccco2)CCC1

inhibition [12]: 14.3%
inhibition [14]: 55.6%
SMILES: O=C1C=C(Nc2ccc(F)cc2)CCC1

inhibition [12]: 24.2%
inhibition [14]: 40.5%
SMILES: O=C1C=C(NCc2ccccc2)CCC1

Source: ChEMBL document CHEMBL4359901, “Cyclic enaminone as new chemotype for selective cyclooxygenase-2 inhibitory, anti-inflammatory, and analgesic activities” (Eur J Med Chem, 2019)
